Experimental data published in patent US6362181B1, “Isoquinolones” (Warner-Lambert Company, priority 1996, dated 2002).
Values after ≈ are worked out from the molar mass of the structure shown.

Tests used:
E. coli B90 = test: Antibacterial assay, standard microtitration, MIC; type: cell-based; settings: Gram negative; for MIC: Escherichia coli, read-out: Minimum Inhibitory Concentrations, E. coli B90
Protocol: (§1) The compounds of the present invention were tested against an assortment of gram negative and gram positive organisms using standard microtitration techniques (Cohen, et al., Antimicrob. Agents Chemother., 1985;28:766; Heifetz, et al. Antimicrob. Agents Chemother., 1974;6:124).

E. coli MC4100 = test: Antibacterial assay, standard microtitration, MIC; type: cell-based; settings: Gram negative; for MIC: Escherichia coli, read-out: Minimum Inhibitory Concentrations, E. coli MC4100
Protocol: as §1

S. pyogenes C203 = test: Antibacterial assay, standard microtitration, MIC; type: cell-based; settings: Gram positive; for MIC: Streptococcus pyogenes, read-out: Minimum Inhibitory Concentrations, S. pyogenes C203
Protocol: as §1

S. aureus 29213 = test: Antibacterial assay, standard microtitration, MIC; type: cell-based; settings: Gram positive; for MIC: Staphylococcus aureus, read-out: Minimum Inhibitory Concentrations, S. aureus 29213
Protocol: as §1

E. coli To1C = test: Antibacterial assay, standard microtitration, MIC; type: cell-based; settings: for Minimum Inhibitory Concentrations, E. coli To1C: Gram negative; for MIC: Escherichia coli, TO1C, read-out: Minimum Inhibitory Concentrations, E. coli To1C
Protocol: as §1

B. subtilis RB1 = test: Antibacterial assay, standard microtitration, MIC; type: cell-based; settings: Gram positive; for MIC: Bacillus subtilis, read-out: Minimum Inhibitory Concentrations, B. subtilis RB1
Protocol: as §1

Compound: Nc1cc2c3c(cccc3c1[SH]1CCNCC1)C(=O)N(O)C2=O [Example 73]
- melting point: 270 to 274 °C

Compound: O=C1c2cccc3c(N4CCCCC4)c([N+](=O)[O-])cc(c23)C(=O)N1O [Example 77]
- melting point: 252 to 254 °C

Compound: O=C1c2cccc3c([SH]4CCNCC4)c([N+](=O)[O-])cc(c23)C(=O)N1O [Example 78]
- melting point: 280 to 283 °C

Compound: CN1CCN(c2c([N+](=O)[O-])cc3c4c(cccc24)C(=O)N(O)C3=O)CC1 [Example 80]
- melting point: 320 to 322 °C

Compound: NC1CCN(c2c([N+](=O)[O-])cc3c4c(cccc24)C(=O)N(O)C3=O)C1 (centres unmarked) [Example 82]
- melting point: 259 to 263 °C

Compound: O=C1c2cccc3c(N4CC[C@H](O)C4)c(Cl)cc(c23)C(=O)N1O [Example 84]
- melting point: 197 to 201 °C

Compound: CC(C)NCC1CCN(c2c(Cl)cc3c4c(cccc24)C(=O)N(O)C3=O)C1.O=C(O)C(F)(F)F (centres unmarked) [Example 86]
- Minimum Inhibitory Concentrations, E. coli B90 (E. coli B90): 0.5 µg/mL
- Minimum Inhibitory Concentrations, E. coli MC4100 (E. coli MC4100): 8.0 µg/mL
- Minimum Inhibitory Concentrations, S. pyogenes C203 (S. pyogenes C203): 4.0 µg/mL
- Minimum Inhibitory Concentrations, S. aureus 29213 (S. aureus 29213): 4.0 µg/mL
- Minimum Inhibitory Concentrations, E. coli To1C (E. coli To1C): 0.5 µg/mL
- Minimum Inhibitory Concentrations, B. subtilis RB1 (B. subtilis RB1): 2.0 µg/mL

Compound: O=C1c2cccc3c(N4CCCCC4)c(Cl)cc(c23)C(=O)N1O [Example 94]
- melting point: 228 to 229 °C

Compound: O=C1c2cccc3c([SH]4CCNCC4)c(Cl)cc(c23)C(=O)N1O [Example 95]
- melting point: 240 to 242 °C

Compound: NC1CCN(c2c(Cl)cc3c4c(cccc24)C(=O)N(O)C3=O)C1.O=C(O)C(F)(F)F (centres unmarked) [Example 99]
- Minimum Inhibitory Concentrations, E. coli B90 (E. coli B90): 1.0 µg/mL
- Minimum Inhibitory Concentrations, E. coli MC4100 (E. coli MC4100): 2.0 µg/mL
- Minimum Inhibitory Concentrations, S. pyogenes C203 (S. pyogenes C203): 4.0 µg/mL
- Minimum Inhibitory Concentrations, S. aureus 29213 (S. aureus 29213): 8.0 µg/mL
- Minimum Inhibitory Concentrations, E. coli To1C (E. coli To1C): 0.5 µg/mL
- Minimum Inhibitory Concentrations, B. subtilis RB1 (B. subtilis RB1): 1.0 µg/mL

Compound: CCCCNC(=O)Nc1cc2c3c(cccc3c1)C(=O)N(O)C2=O [Example 100]
- melting point: > 250 °C

Compound: CNC(=O)Nc1cc2c3c(cccc3c1)C(=O)N(O)C2=O [Example 101]
- melting point: > 250 °C

Compound: Cc1cc2c3c(cccc3c1Br)C(=O)N(O)C2=O [Example 104, 6-Bromo-5-methyl-2-hydroxy-benzo[de]isoquinoline-1,3-dione]
- MIC (E. coli B90): 0.25 µg/mL (≈ 0.817 µM)
- MIC (E. coli MC4100): > 64 µg/mL
- MIC (S. pyogenes C203): > 64 µg/mL
- MIC (S. aureus 29213): 4 µg/mL (≈ 13.1 µM)
- MIC (E. coli To1C): 0.25 µg/mL (≈ 0.817 µM)
- MIC (B. subtilis RB1): 0.5 µg/mL (≈ 1.63 µM)

Compound: O=C1c2cccc3c([N+](=O)[O-])c(Br)cc(c23)C(=O)N1O [Example 108, 5-Bromo-2-hydroxy-6-nitro-benzo[de]isoquinoline-1,3-dione]
- MIC (E. coli B90): 0.25 µg/mL (≈ 0.742 µM)
- MIC (E. coli MC4100): 8 µg/mL (≈ 23.7 µM)
- MIC (S. pyogenes C203): 16 µg/mL (≈ 47.5 µM)
- MIC (S. aureus 29213): 4 µg/mL (≈ 11.9 µM)
- MIC (E. coli To1C): 0.5 µg/mL (≈ 1.48 µM)
- MIC (B. subtilis RB1): 2 µg/mL (≈ 5.93 µM)

Compound: O=C1c2cc([N+](=O)[O-])cc3c(N4CCCC4)c([N+](=O)[O-])cc(c23)C(=O)N1O [Example 111, 2-Hydroxy-5,8-dinitro-6-(pyrrolidin-1-yl)-benzo[de]isoquinoline-1,3-dione]
- MIC (E. coli B90): 2 µg/mL (≈ 5.37 µM)
- MIC (E. coli MC4100): > 64 µg/mL
- MIC (S. pyogenes C203): > 64 µg/mL
- MIC (S. aureus 29213): 8 µg/mL (≈ 21.5 µM)
- MIC (E. coli To1C): 4 µg/mL (≈ 10.7 µM)
- MIC (B. subtilis RB1): 32 µg/mL (≈ 86 µM)

Compound: CN1COc2cc3c4c(cccc4c2C1)C(=O)N(O)C3=O [Example 127]
- melting point: 247 to 249 °C

Compound: CCCCCN1COc2cc3c4c(cccc4c2C1)C(=O)N(O)C3=O [Example 129]
- melting point: 194 to 196 °C

Compound: O=C1c2cccc3c4c(cc(c23)C(=O)N1O)OCN(C1CC1)C4 [Example 131]
- Minimum Inhibitory Concentrations, E. coli B90 (E. coli B90): 8.0 µg/mL
- Minimum Inhibitory Concentrations, E. coli MC4100 (E. coli MC4100): 32 µg/mL
- Minimum Inhibitory Concentrations, S. pyogenes C203 (S. pyogenes C203): >64 µg/mL
- Minimum Inhibitory Concentrations, S. aureus 29213 (S. aureus 29213): >64 µg/mL
- Minimum Inhibitory Concentrations, E. coli To1C (E. coli To1C): 8.0 µg/mL
- Minimum Inhibitory Concentrations, B. subtilis RB1 (B. subtilis RB1): 32 µg/mL

Compound: O=C1c2cccc3c(N4CCCC4)c(F)cc(c23)C(=O)N1O [Example 134, 5-Fluoro-2-hydroxy-6-(pyrrolidin-1-yl)-benzo[de]isoquinoline-1,3-dione]
- MIC (E. coli B90): 0.5 µg/mL (≈ 1.67 µM)
- MIC (E. coli MC4100): > 64 µg/mL
- MIC (S. pyogenes C203): 8 µg/mL (≈ 26.6 µM)
- MIC (S. aureus 29213): 1 µg/mL (≈ 3.33 µM)
- MIC (E. coli To1C): 0.5 µg/mL (≈ 1.67 µM)
- MIC (B. subtilis RB1): 1 µg/mL (≈ 3.33 µM)

Compound: CN(C)CCN1C(=O)c2cccc3cc([N+](=O)[O-])cc(c23)C1=O [Mitonafide, mitonafide, reference compound]
- MIC (E. coli B90): 8 µg/mL (≈ 25.5 µM)
- MIC (E. coli MC4100): 32 µg/mL (≈ 102 µM)
- MIC (S. pyogenes C203): 4 µg/mL (≈ 12.8 µM)
- MIC (S. aureus 29213): 32 µg/mL (≈ 102 µM)
- MIC (B. subtilis RB1): 16 µg/mL (≈ 51.1 µM)
